This is an account of results in patent US12612411B1, “Imidazopyrazine derivatives, process for preparation thereof, and their uses as luciferins” (INSTITUT PASTEUR, priority 2017, dated 2026).

Each structure is given as a SMILES string.

In this assay the target is T1, nanoKAZ (Oplophorus gracilirostris, UniProt Q9GV45, A31E/A60N/A81I/F95D/I117V/K70R/L54V/L99Q/M102K/N193R/P142E/Q151K/Q38R/Q45L/V71I/Y165I).
T1 construct: luciferase catalytic domain (nanoKAZ, 19 kDa) from the Oplophorus-derived luciferase
T1 sequence (Q9GV45 other isoform, or with tags, fused parts or gaps with the stated changes): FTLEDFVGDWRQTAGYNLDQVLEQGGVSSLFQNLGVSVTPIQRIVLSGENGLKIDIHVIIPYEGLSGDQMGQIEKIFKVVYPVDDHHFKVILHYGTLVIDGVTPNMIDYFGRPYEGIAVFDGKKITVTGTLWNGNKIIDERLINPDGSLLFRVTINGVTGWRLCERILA
In words: Michaelis-Menten parameters of nanoKAZ from Lineweaver-Burk representation. Format: biochemical. The settings on record: extrapolated from Lineweaver-Burk, constant enzyme concentration. An excerpt:
The two dotted lines (linear regression) are converging to the same intercept with the x-axis (−1/Km) and different intercepts with the y-axis (1/Vmax). The equations of the two linear regressions are indicated and the corresponding correlation factors (R^2) with the experimental data are reported.
Considering the hypothesis of a Michaelis-Menten mechanism for the nanoKAZ, the Km and Vmax were extrapolated from the Lineweaver-Burk representation of the enzyme activity catalyzing either Q-1 or Q-3. […] The data have been fitted with linear regression with satisfying high correlation factors (R). The Km are the same for both substrates (Km=2 μM) whereas the Vmax is 3-times lower for Q-1 (0.6·10^6 RLU/sec) than for Q-3 (2.0·10^6 RLU/sec).

In the case of `O=c1c(Cc2ccco2)nc2c(Cc3ccccc3)[nH]c(-c3ccccc3)cn1-2` [Q-1, 8-benzyl-2-(furan-2-ylmethyl)-6-phenylimidazo[1,2-a]pyrazin-3(7H)-one, reference compound], the Km is 2 µM. The same measure for `Cc1ccc(Cc2nc3c(Cc4ccccc4)[nH]c(-c4ccccc4)cn-3c2=O)o1` [Q-3, 8-benzyl-2-((5-methylfuran-2-yl)methyl)-6-phenylimidazo[1,2-a]pyrazin-3(7H)-one]: 2 µM.

As a reminder, the Km is the concentration of substrate that gives half-maximal velocity.
